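Five concentrations, 48 hours, 96-well plates. TGI is the concentration that stops growth completely.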
Tests used:
Assay in all cases: inhibition of tumour cell growth, NCI panel, 48 h
[1] = test system: IGROV1 ovarian
[2] = test system: MDA-MB-435
[3] = test system: CAKI-1 renal
[4] = test system: K-562 leukemia
[5] = test system: NCI-H522 lung
[6] = test system: SNB-19 CNS
[7] = test system: HS 578T breast
[8] = test system: SF-295 CNS
[9] = test system: RXF 393 renal
[10] = test system: SK-OV-3 ovarian
[11] = test system: ACHN renal
[12] = test system: SK-MEL-2 melanoma
[13] = test system: A549 NSCLC
[14] = test system: MCF7 breast
[15] = test system: SW-620 colon
[16] = test system: U251 CNS
[17] = test system: T-47D breast
[18] = test system: UACC-62 melanoma
[19] = test system: LOX IMVI melanoma
[20] = test system: UO-31 renal
[21] = test system: PC-3 prostate
[22] = test system: HCT-116 colon
[23] = test system: COLO 205 colon
[24] = test system: MDA-N
[25] = test system: KM12 colon
[26] = test system: HOP-92 NSCLC
[27] = test system: SK-MEL-28 melanoma
[28] = test system: RPMI-8226 leukemia
[29] = test system: SR leukemia
[30] = test system: A498 renal
[31] = test system: SN12C renal
[32] = test system: CCRF-CEM leukemia
[33] = test system: 786-0 renal
[34] = test system: OVCAR-5 ovarian
[35] = test system: EKVX NSCLC
[36] = test system: MDA-MB-231 breast
[37] = test system: HOP-62 NSCLC
[38] = test system: SNB-75 CNS
[39] = test system: MOLT-4 leukemia
[40] = test system: SF-539 CNS
[41] = test system: HCT-15 colon
[42] = test system: UACC-257 melanoma
[43] = test system: TK-10 renal
[44] = test system: NCI-H460 lung
[45] = test system: HL-60(TB) leukemia
[46] = test system: DU-145 prostate
[47] = test system: BT-549 breast
[48] = test system: OVCAR-3 ovarian
[49] = test system: SK-MEL-5 melanoma
[50] = test system: OVCAR-4 ovarian
[51] = test system: NCI-H226 lung
[52] = test system: SF-268 CNS
[53] = test system: M14 melanoma
[54] = test system: OVCAR-8 ovarian
[55] = test system: HT29 colon
[56] = test system: MALME-3M melanoma
[57] = test system: NCI/ADR-RES ovarian
[58] = test system: NCI-H23 lung
[59] = test system: HCC-2998 colon

SMILES: CCOC(=O)NC(=S)NN(C)C1=NCC(C)(C)S1
- TGI [1]: > 100 µM
- TGI [2]: > 100 µM
- TGI [3]: > 100 µM
- TGI [4]: > 100 µM
- TGI [5]: > 100 µM
- TGI [6]: > 100 µM
- TGI [7]: > 100 µM
- TGI [8]: > 100 µM
- TGI [9]: > 100 µM
- TGI [10]: > 100 µM
- TGI [11]: > 100 µM
- TGI [12]: > 100 µM
- TGI [13]: > 100 µM
- TGI [14]: > 100 µM
- TGI [15]: > 100 µM
- TGI [16]: > 100 µM
- TGI [17]: > 100 µM
- TGI [18]: > 100 µM
- TGI [19]: > 100 µM
- TGI [20]: > 100 µM
- TGI [21]: > 100 µM
- TGI [22]: > 100 µM
- TGI [23]: > 100 µM
- TGI [24]: > 100 µM
- TGI [25]: > 100 µM
- TGI [26]: > 100 µM
- TGI [27]: > 100 µM
- TGI [28]: > 100 µM
- TGI [29]: > 100 µM
- TGI [30]: > 100 µM
- TGI [31]: > 100 µM
- TGI [32]: > 100 µM
- TGI [33]: > 100 µM
- TGI [34]: > 100 µM
- TGI [35]: > 100 µM
- TGI [36]: > 100 µM
- TGI [37]: > 100 µM
- TGI [38]: > 100 µM
- TGI [39]: > 100 µM
- TGI [40]: > 100 µM
- TGI [41]: > 100 µM
- TGI [42]: > 100 µM
- TGI [43]: > 100 µM
- TGI [44]: > 100 µM
- TGI [45]: > 100 µM
- TGI [46]: > 100 µM
- TGI [47]: > 100 µM
- TGI [48]: > 100 µM
- TGI [49]: > 100 µM

SMILES: N#CCCN(CCC#N)c1ccc(/C=C2\N=C(c3ccccc3)N(c3ccc(Cl)cc3)C2=O)cc1
- TGI [1]: > 100 µM
- TGI [2]: > 100 µM
- TGI [50]: > 100 µM
- TGI [4]: > 100 µM
- TGI [5]: > 100 µM
- TGI [6]: > 100 µM
- TGI [7]: 86.8 µM
- TGI [8]: > 100 µM
- TGI [9]: > 100 µM
- TGI [10]: > 100 µM
- TGI [11]: > 100 µM
- TGI [12]: > 100 µM
- TGI [13]: > 100 µM
- TGI [14]: > 100 µM
- TGI [51]: > 100 µM
- TGI [15]: > 100 µM
- TGI [16]: > 100 µM
- TGI [17]: > 100 µM
- TGI [52]: > 100 µM
- TGI [18]: > 100 µM
- TGI [19]: > 100 µM
- TGI [20]: > 100 µM
- TGI [21]: > 100 µM
- TGI [22]: > 100 µM
- TGI [53]: > 100 µM
- TGI [23]: > 100 µM
- TGI [24]: > 100 µM
- TGI [25]: > 100 µM
- TGI [54]: > 100 µM
- TGI [26]: > 100 µM
- TGI [27]: > 100 µM
- TGI [28]: > 100 µM
- TGI [30]: > 100 µM
- TGI [55]: > 100 µM
- TGI [31]: > 100 µM
- TGI [56]: > 100 µM
- TGI [32]: > 100 µM
- TGI [33]: > 100 µM
- TGI [34]: > 100 µM
- TGI [57]: > 100 µM
- TGI [35]: > 100 µM
- TGI [36]: > 100 µM
- TGI [37]: > 100 µM
- TGI [39]: > 100 µM
- TGI [40]: > 100 µM
- TGI [41]: > 100 µM
- TGI [42]: > 100 µM
- TGI [43]: > 100 µM
- TGI [44]: > 100 µM
- TGI [45]: > 100 µM
- TGI [46]: > 100 µM
- TGI [47]: > 100 µM
- TGI [48]: > 100 µM
- TGI [49]: > 100 µM

SMILES: COc1ccc(C#CC(=O)O)c(OC)c1
- TGI [2]: > 100 µM
- TGI [50]: > 100 µM
- TGI [3]: > 100 µM
- TGI [4]: > 100 µM
- TGI [6]: > 100 µM
- TGI [58]: > 100 µM
- TGI [7]: > 100 µM
- TGI [8]: > 100 µM
- TGI [10]: > 100 µM
- TGI [11]: > 100 µM
- TGI [12]: > 100 µM
- TGI [13]: > 100 µM
- TGI [14]: > 100 µM
- TGI [51]: > 100 µM
- TGI [15]: > 100 µM
- TGI [16]: > 100 µM
- TGI [59]: > 100 µM
- TGI [17]: > 100 µM
- TGI [18]: > 100 µM
- TGI [19]: > 100 µM
- TGI [20]: > 100 µM
- TGI [21]: > 100 µM
- TGI [22]: > 100 µM
- TGI [53]: > 100 µM
- TGI [23]: > 100 µM
- TGI [24]: > 100 µM
- TGI [25]: > 100 µM
- TGI [54]: > 100 µM
- TGI [26]: > 100 µM
- TGI [27]: > 100 µM
- TGI [28]: > 100 µM
- TGI [29]: > 100 µM
- TGI [30]: > 100 µM
- TGI [55]: > 100 µM
- TGI [31]: > 100 µM
- TGI [56]: > 100 µM
- TGI [32]: > 100 µM
- TGI [33]: > 100 µM
- TGI [34]: > 100 µM
- TGI [57]: > 100 µM
- TGI [35]: > 100 µM
- TGI [36]: > 100 µM
- TGI [37]: > 100 µM
- TGI [39]: > 100 µM
- TGI [40]: > 100 µM
- TGI [41]: > 100 µM
- TGI [42]: > 100 µM
- TGI [43]: > 100 µM
- TGI [44]: > 100 µM
- TGI [45]: > 100 µM
- TGI [46]: > 100 µM
- TGI [47]: > 100 µM
- TGI [48]: > 100 µM
- TGI [49]: > 100 µM

SMILES: CSc1c(C#N)c(N)n2c1C(=O)N(c1ccccc1)C2=S
- TGI [1]: > 100 µM
- TGI [2]: > 100 µM
- TGI [50]: 69.7 µM
- TGI [3]: > 100 µM
- TGI [4]: > 100 µM
- TGI [5]: 57.7 µM
- TGI [6]: > 100 µM
- TGI [58]: > 100 µM
- TGI [7]: 80.7 µM
- TGI [8]: > 100 µM
- TGI [9]: > 100 µM
- TGI [10]: > 100 µM
- TGI [11]: > 100 µM
- TGI [13]: > 100 µM
- TGI [14]: > 100 µM
- TGI [51]: > 100 µM
- TGI [15]: > 100 µM
- TGI [16]: > 100 µM
- TGI [59]: > 100 µM
- TGI [17]: > 100 µM
- TGI [52]: > 100 µM
- TGI [18]: > 100 µM
- TGI [19]: > 100 µM
- TGI [20]: > 100 µM
- TGI [21]: > 100 µM
- TGI [22]: > 100 µM
- TGI [53]: > 100 µM
- TGI [23]: 78.3 µM
- TGI [24]: > 100 µM
- TGI [25]: > 100 µM
- TGI [54]: > 100 µM
- TGI [26]: > 100 µM
- TGI [27]: > 100 µM
- TGI [30]: 94.3 µM
- TGI [55]: > 100 µM
- TGI [31]: > 100 µM
- TGI [56]: > 100 µM
- TGI [32]: > 100 µM
- TGI [33]: > 100 µM
- TGI [34]: > 100 µM
- TGI [57]: > 100 µM
- TGI [35]: > 100 µM
- TGI [36]: 45.6 µM
- TGI [37]: > 100 µM
- TGI [38]: > 100 µM
- TGI [39]: > 100 µM
- TGI [40]: > 100 µM
- TGI [41]: > 100 µM
- TGI [42]: > 100 µM
- TGI [43]: > 100 µM
- TGI [44]: > 100 µM
- TGI [45]: > 100 µM
- TGI [46]: > 100 µM
- TGI [47]: > 100 µM
- TGI [48]: > 100 µM
- TGI [49]: > 100 µM

Reference: PubChem BioAssay (NCI)
